Data published in PubChem BioAssay (NCI).
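Compound exposure: 48 hours, 5 concentrations, 96-well plates. At the TGI there is no net growth.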

What was measured:
Assay in all cases: NCI anticancer screen, dose series, 48 h
RXF 393 renal = test system: RXF 393 renal
HCT-116 colon = test system: HCT-116 colon
MOLT-4 leukemia = test system: MOLT-4 leukemia
NCI-H23 lung = test system: NCI-H23 lung
SN12C renal = test system: SN12C renal
ACHN renal = test system: ACHN renal
SNB-75 CNS = test system: SNB-75 CNS
HOP-62 NSCLC = test system: HOP-62 NSCLC
SK-MEL-28 melanoma = test system: SK-MEL-28 melanoma
KM12 colon = test system: KM12 colon
HOP-18 NSCLC = test system: HOP-18 NSCLC
NCI-H226 lung = test system: NCI-H226 lung
LOX IMVI melanoma = test system: LOX IMVI melanoma
SK-MEL-5 melanoma = test system: SK-MEL-5 melanoma
DLD-1 colon = test system: DLD-1 colon
A549 NSCLC = test system: A549 NSCLC
IGROV1 ovarian = test system: IGROV1 ovarian
UO-31 renal = test system: UO-31 renal
KM20L2 colon = test system: KM20L2 colon
SK-MEL-2 melanoma = test system: SK-MEL-2 melanoma
OVCAR-8 ovarian = test system: OVCAR-8 ovarian
K-562 leukemia = test system: K-562 leukemia
DMS 273 small cell lung = test system: DMS 273 small cell lung
HCT-15 colon = test system: HCT-15 colon
SW-620 colon = test system: SW-620 colon
NCI-H460 lung = test system: NCI-H460 lung
SF-539 CNS = test system: SF-539 CNS
CCRF-CEM leukemia = test system: CCRF-CEM leukemia
M14 melanoma = test system: M14 melanoma
HT29 colon = test system: HT29 colon
TK-10 renal = test system: TK-10 renal
SF-295 CNS = test system: SF-295 CNS
MALME-3M melanoma = test system: MALME-3M melanoma
DMS 114 small cell lung = test system: DMS 114 small cell lung
UACC-62 melanoma = test system: UACC-62 melanoma
786-0 renal = test system: 786-0 renal
EKVX NSCLC = test system: EKVX NSCLC
COLO 205 colon = test system: COLO 205 colon
OVCAR-3 ovarian = test system: OVCAR-3 ovarian
SK-OV-3 ovarian = test system: SK-OV-3 ovarian
NCI-H522 lung = test system: NCI-H522 lung
U251 CNS = test system: U251 CNS
UACC-257 melanoma = test system: UACC-257 melanoma
M19-MEL melanoma = test system: M19-MEL melanoma
HL-60(TB) leukemia = test system: HL-60(TB) leukemia
RPMI-8226 leukemia = test system: RPMI-8226 leukemia
SNB-78 CNS = test system: SNB-78 CNS
SF-268 CNS = test system: SF-268 CNS
A498 renal = test system: A498 renal
HOP-92 NSCLC = test system: HOP-92 NSCLC
OVCAR-4 ovarian = test system: OVCAR-4 ovarian
HCC-2998 colon = test system: HCC-2998 colon
LXFL 529 NSCLC = test system: LXFL 529 NSCLC
OVCAR-5 ovarian = test system: OVCAR-5 ovarian
SNB-19 CNS = test system: SNB-19 CNS
CAKI-1 renal = test system: CAKI-1 renal

## Cc1ccccc1NC(=O)c1cc2cc(N=Nc3ccccc3C(=O)O)ccc2oc1=O
RXF 393 renal
  TGI: 33.9 µM
HCT-116 colon
  TGI: 57.9 µM
MOLT-4 leukemia
  TGI: 83.5 µM
NCI-H23 lung
  TGI: 12.2 µM
SN12C renal
  TGI: 53.3 µM
ACHN renal
  TGI: > 100 µM
SNB-75 CNS
  TGI: 35.6 µM
HOP-62 NSCLC
  TGI: 43.3 µM
SK-MEL-28 melanoma
  TGI: 41.2 µM
KM12 colon
  TGI: 27.8 µM
HOP-18 NSCLC
  TGI: 35.1 µM
NCI-H226 lung
  TGI: 44 µM
LOX IMVI melanoma
  TGI: 41.6 µM
SK-MEL-5 melanoma
  TGI: 30.7 µM
DLD-1 colon
  TGI: 54.3 µM
A549 NSCLC
  TGI: > 100 µM
IGROV1 ovarian
  TGI: 65.2 µM
UO-31 renal
  TGI: 50.6 µM
KM20L2 colon
  TGI: 32.1 µM
SK-MEL-2 melanoma
  TGI: 47.7 µM
OVCAR-8 ovarian
  TGI: > 100 µM
K-562 leukemia
  TGI: 79.5 µM
DMS 273 small cell lung
  TGI: 42.5 µM
HCT-15 colon
  TGI: 36.7 µM
SW-620 colon
  TGI: > 100 µM
NCI-H460 lung
  TGI: 60 µM
SF-539 CNS
  TGI: 37.5 µM
CCRF-CEM leukemia
  TGI: 80.4 µM
M14 melanoma
  TGI: 37.7 µM
HT29 colon
  TGI: 38.3 µM
TK-10 renal
  TGI: > 100 µM
SF-295 CNS
  TGI: 39.2 µM
MALME-3M melanoma
  TGI: 25 µM
DMS 114 small cell lung
  TGI: 41.2 µM
UACC-62 melanoma
  TGI: 17.9 µM
786-0 renal
  TGI: 69.6 µM
EKVX NSCLC
  TGI: > 100 µM
COLO 205 colon
  TGI: 27.8 µM
OVCAR-3 ovarian
  TGI: > 100 µM
SK-OV-3 ovarian
  TGI: 68.7 µM
NCI-H522 lung
  TGI: 29.5 µM
U251 CNS
  TGI: 51.5 µM
UACC-257 melanoma
  TGI: 24.1 µM
M19-MEL melanoma
  TGI: 27.3 µM
HL-60(TB) leukemia
  TGI: 55.6 µM
RPMI-8226 leukemia
  TGI: 60.2 µM

## CC[C@]1(O)CC2CN(CCCc3c([nH]c4ccccc34)[C@@](C(=O)OC)(c3cc4c(cc3OC)N(C)C3C45CCN4CC=C[C@](CC)(C45)C(OC(C)=O)[C@@]3(O)C(=O)OC)C2)C1 (stereo partly specified)
RXF 393 renal
  TGI: 4.41 µM
SNB-78 CNS
  TGI: > 3.04 µM
HCT-116 colon
  TGI: > 10 µM
MOLT-4 leukemia
  TGI: > 10 µM
NCI-H23 lung
  TGI: 3.77 µM
SN12C renal
  TGI: > 10 µM
SF-268 CNS
  TGI: > 3.13 µM
ACHN renal
  TGI: > 10 µM
SNB-75 CNS
  TGI: 5.7 µM
HOP-62 NSCLC
  TGI: > 3.4 µM
A498 renal
  TGI: 4.54 µM
SK-MEL-28 melanoma
  TGI: > 10 µM
KM12 colon
  TGI: > 10 µM
HOP-18 NSCLC
  TGI: 0.73 µM
NCI-H226 lung
  TGI: > 3.01 µM
LOX IMVI melanoma
  TGI: > 10 µM
SK-MEL-5 melanoma
  TGI: > 6.15 µM
DLD-1 colon
  TGI: > 10 µM
A549 NSCLC
  TGI: > 10 µM
IGROV1 ovarian
  TGI: > 10 µM
UO-31 renal
  TGI: > 10 µM
HOP-92 NSCLC
  TGI: > 10 µM
OVCAR-4 ovarian
  TGI: > 10 µM
KM20L2 colon
  TGI: 1.05 µM
SK-MEL-2 melanoma
  TGI: > 8.05 µM
OVCAR-8 ovarian
  TGI: > 10 µM
K-562 leukemia
  TGI: > 10 µM
DMS 273 small cell lung
  TGI: > 10 µM
HCT-15 colon
  TGI: > 10 µM
SW-620 colon
  TGI: > 10 µM
NCI-H460 lung
  TGI: > 10 µM
SF-539 CNS
  TGI: 6.03 µM
HCC-2998 colon
  TGI: 8.2 µM
CCRF-CEM leukemia
  TGI: > 10 µM
M14 melanoma
  TGI: 4.01 µM
HT29 colon
  TGI: > 3.44 µM
TK-10 renal
  TGI: > 10 µM
SF-295 CNS
  TGI: > 2.13 µM
MALME-3M melanoma
  TGI: > 3.16 µM
UACC-62 melanoma
  TGI: > 10 µM
786-0 renal
  TGI: > 10 µM
EKVX NSCLC
  TGI: > 8.04 µM
COLO 205 colon
  TGI: > 7.86 µM
OVCAR-3 ovarian
  TGI: > 2.12 µM
LXFL 529 NSCLC
  TGI: > 10 µM
SK-OV-3 ovarian
  TGI: > 7.95 µM
OVCAR-5 ovarian
  TGI: > 10 µM
NCI-H522 lung
  TGI: 0.393 µM
SNB-19 CNS
  TGI: 9.83 µM
U251 CNS
  TGI: > 10 µM
CAKI-1 renal
  TGI: > 10 µM
UACC-257 melanoma
  TGI: > 10 µM
M19-MEL melanoma
  TGI: > 10 µM
HL-60(TB) leukemia
  TGI: > 5.65 µM
RPMI-8226 leukemia
  TGI: > 8.84 µM
